# Assay results reported in patent publication US8399484B2, “Combination therapy for treating HCV infection” (priority 2008, dated 2013).
# Where a name gives a salt, the structure may show the parent alone. Read-outs that look alike come from different tables or passages of the source.
# Legend:
# [1] = tested on: chronic hepatitis C genotype-1 infection; details: for Virologic rebound during the first 28 days of treatment: 240 mg qd + PegIFN/RBV
# Method: (§1) The solvent was also used as the placebo.
# A multiple rising dose study evaluated the safety and antiviral activity in P+R treatment-experienced patients (pts) with chronic hepatitis C genotype-1 infection for 28 days as combination therapy with P+R.
# All patients were monitored for safety and tolerability of study drugs. The primary endpoint was a ≧2 log 10 reduction in HCV viral load (VL) from baseline at any time up to Day 28. Plasma HCV-RNA levels were measured using the Roche COBAS® TaqMan® assay (LLOQ 25 IU/mL). The treatment experienced patients in this study included P+R null responders and partial responders. After day 28, at the discretion of the investigator, patients could continue to receive standard of care treatment, i.e., P+R.
# [2] = tested on: R155K variants (genotype 1a NS3); experiment: Drug sensitivity assay: HCV replicon shuttle vector with patient NS3 amplicons, luciferase, Huh-7.5 cells; assay type: cell-based; details: Hepatitis C virus, Huh7.5, read-out: range of EC50 values
# From the text: (§2) A bicistronic HCV replicon shuttle vector (pIT2) comprising a luciferase reporter gene and an adapted Con-1 NS3/NS5B region was modified to create two unique restriction sites (Mlu I and Spe I) at NS3 codons 11 and 225 which enabled the insertion of compatible NS3 amplicons isolated from HCV-infected patient plasma samples. The first-round PCR product synthesized from the patient plasma-purified RNA (also used for generating fragments for population- and clonal-based sequencing) was used to amplify a 0.65 kbp fragment with primer pairs that respectively contain the unique MluI and SpeI restriction sites for insertion into the shuttle vector. Amplicons were ligated in the pIT2 shuttle vector and reconstituted plasmid DNA was used to generate HCV subgenomic replicon RNA transcripts (T7 RIBOMAX™ kit, Promega). […] At the end of the incubation, luciferase activity was measured with the BRIGHT-GLO™ substrate as the luminescence quantified (CPS) in each well of the culture plate reflected the amount of HCV RNA replication. […] The EC50 of mutant NS3 were compared to the baseline EC50 and used to generate fold-change values.
# [3] = tested on: D168 variants (genotype 1b NS3); experiment: as above; assay type: cell-based; details: Hepatitis C virus, Huh7.5, read-out: EC50 values
# From the text: as §2
# [4] = tested on: chronic HCV genotype-1 infection; details: for VL rebound during treatment in the first 14 days of monotherapy: all dose groups
# Method: as §1
# A multiple rising dose study evaluated safety and antiviral activity in treatment-naive patients (pts) with chronic HCV genotype-1 infection as monotherapy for 14 days followed by triple combination therapy with P+R for an additional 14 days.
# Plasma HCV-RNA levels were measured with Roche COBAS® TaqMan® assay (LLOQ 25 IU/m L). After day 28, at the discretion of the investigator, patients could continue to receive standard of care treatment, i.e., P+R.
compound,measurement,setting,value
C=C[C@@H]1C[C@]1(NC(=O)[C@@H]1C[C@H](Oc2cc(-c3csc(NC(=O)C(C)C)n3)nc3c(Br)c(OC)ccc23)CN1C(=O)[C@@H](NC(=O)OC1CCCC1)C(C)(C)C)C(=O)O [Compound (1) sodium salt],Virologic rebound during the first 28 days of treatment (patients),[1]; 48 mg qd + PegIFN/RBV,2/6
same,Virologic rebound during the first 28 days of treatment (patients),[1]; 120 mg qd + PegIFN/RBV,1/7
same,pts with VL<25 IU/mL at Day 28,[1]; 240 mg qd + P+R,⅚
same,Virologic rebound during the first 28 days of treatment,[1],no rebound
same,Virologic rebound during the first 28 days of treatment,[1]; listed as BI 201335,No rebound
same,VL decline achieved with triple combination therapy,"[1]; all pts, + P+R",> 2 log 10
same,Discontinuation of treatment due to an AE,"[1]; combination with P+R, AE anxiety",One subject discontinued
same,"VL at next visit, Day 42",[1]; sixth pt of the 240 mg qd cohort,< 25 IU/ml
same,VL rebound during treatment in the first 14 days of monotherapy,[4],majority of patients
same,VL rebound during treatment in the first 14 days of monotherapy,[4]; listed as Compound (1) (sodium salt),majority of the patients
same,VL decline achieved during the monotherapy period,[4]; all pts on active except 1 pt in the 20 mg cohort,> 2 log 10
same,Discontinuation of treatment due to adverse events,[4]; during monotherapy,No pts discontinued
same,Time of maximal decline of VL after starting treatment,"[4]; monotherapy, typical",2 to 4 days
